Results from patent US10966978B2, “Dose and regimen for HDM2-p53 interaction inhibitors” (Novartis AG, priority 2016, dated 2021).
Where two headings read alike, the source gives them in different places.

Tested on: patients with advanced TP53 wild-type (WT) leukemias

COc1ncc(-c2nc3c(n2C(C)C)[C@H](c2ccc(Cl)cc2)N(c2cc(Cl)cn(C)c2=O)C3=O)c(OC)n1 [HDM201, (S)-5-(5-Chloro-1-methyl-2-oxo-1,2-dihydro-pyridin-3-yl)-6-(4-chloro-phenyl)-2-(2,4-dimethoxy-pyrimidin-5-yl)-1-isopropyl-5,6-dihydro-1H-pyrrolo[3,4-d]imidazol-4-one]
AE: Haemoglobin Decreased (Regimen 2A N = 7, Grade 3/4): 0 n (%) | AE: Headache (Regimen 2A N = 7, Grade 3/4): 0 n (%) | AE: Hyperbilirubinaemia (Regimen 2A N = 7, Grade 3/4): 0 n (%) | AE: Hyperglycaemia (Regimen 2A N = 7, Grade 3/4): 0 n (%) | AE: Hyperkalaemia (Regimen 2A N = 7, Grade 3/4): 0 n (%) | AE: Hyperphosphataemia (Regimen 2A N = 7, Grade 3/4): 0 n (%) | AE: Hyperuricaemia (Regimen 2A N = 7, Grade 3/4): 0 n (%) | AE: Hypoalbuminaemia (Regimen 2A N = 7, Grade 3/4): 0 n (%) | AE: Hypocalcaemia (Regimen 2A N = 7, Grade 3/4): 0 n (%) | AE: Hypokalaemia (Regimen 2A N = 7, Grade 3/4): 0 n (%) | AE: Hypomagnesaemia (Regimen 2A N = 7, Grade 3/4): 0 n (%) | AE: Hyponatraemia (Regimen 2A N = 7, Grade 3/4): 0 n (%) | AE: Hypophosphataemia (Regimen 2A N = 7, Grade 3/4): 0 n (%) | AE: Hypotension (Regimen 2A N = 7, Grade 3/4): 0 n (%) | AE: Infection (Regimen 2A N = 7, Grade 3/4): 0 n (%) | AE: Infective Glossitis (Regimen 2A N = 7, Grade 3/4): 0 n (%) | AE: Iron Overload (Regimen 2A N = 7, Grade 3/4): 0 n (%) | AE: Leukopenia (Regimen 2A N = 7, Grade 3/4): 0 n (%) | AE: Lip Oedema (Regimen 2A N = 7, Grade 3/4): 0 n (%) | AE: Lipase Increased (Regimen 2A N = 7, Grade 3/4): 0 n (%) | AE: Macular Oedema (Regimen 2A N = 7, Grade 3/4): 0 n (%) | AE: Malaise (Regimen 2A N = 7, Grade 3/4): 0 n (%) | AE: Mouth Haemorrhage (Regimen 2A N = 7, Grade 3/4): 0 n (%) | AE: Nausea (Regimen 2A N = 7, Grade 3/4): 0 n (%) | AE: Neutropenia/Neutrophil Count Decreased (Regimen 2A N = 7, Grade 3/4): 1 (14.3) n (%) | AE: Oedema (Regimen 2A N = 7, Grade 3/4): 0 n (%) | AE: Oedema Peripheral (Regimen 2A N = 7, Grade 3/4): 0 n (%) | AE: Oral Disorder (Regimen 2A N = 7, Grade 3/4): 0 n (%) | AE: Pain In Extremity (Regimen 2A N = 7, Grade 3/4): 0 n (%) | AE: Pancytopenia (Regimen 2A N = 7, Grade 3/4): 0 n (%) | AE: Pneumonia (Regimen 2A N = 7, Grade 3/4): 0 n (%) | AE: Pollakiuria (Regimen 2A N = 7, Grade 3/4): 0 n (%) | AE: Pyrexia (Regimen 2A N = 7, Grade 3/4): 0 n (%) | AE: Rash (Regimen 2A N = 7, Grade 3/4): 0 n (%) | AE: Rash Erythematous (Regimen 2A N = 7, Grade 3/4): 0 n (%) | AE: Rash Papular (Regimen 2A N = 7, Grade 3/4): 0 n (%) | AE: Rectal Haemorrhage (Regimen 2A N = 7, Grade 3/4): 0 n (%) | AE: Renal Failure (Regimen 2A N = 7, Grade 3/4): 0 n (%) | AE: Skin Exfoliation (Regimen 2A N = 7, Grade 3/4): 0 n (%) | AE: Stomatitis (Regimen 2A N = 7, Grade 3/4): 0 n (%) | AE: Subarachnoid Haemorrhage (Regimen 2A N = 7, Grade 3/4): 0 n (%) | AE: Thrombocytopenia/Platelet Count Decreased (Regimen 2A N = 7, Grade 3/4): 2 (28.6) n (%) | AE: Total (Regimen 2A N = 7, Grade 3/4): 3 (42.9) n (%) | AE: Tumour Lysis Syndrome (Regimen 2A N = 7, Grade 3/4): 1 (14.3) n (%) | AE: Vomiting (Regimen 2A N = 7, Grade 3/4): 0 n (%) | AE: Weight Decreased (Regimen 2A N = 7, Grade 3/4): 0 n (%) | AE: White Blood Cell Count Decreased (Regimen 2A N = 7, Grade 3/4): 1 (14.3) n (%) | AE: Abdominal Discomfort (Regimen 2C N = 8, All Grades): 0 n (%) | AE: Abdominal Pain (Regimen 2C N = 8, All Grades): 0 n (%) | AE: Abdominal Pain Upper (Regimen 2C N = 8, All Grades): 0 n (%) | AE: Amylase Increased (Regimen 2C N = 8, All Grades): 0 n (%) | AE: Anaemia (Regimen 2C N = 8, All Grades): 5 (62.5) n (%) | AE: Arthralgia (Regimen 2C N = 8, All Grades): 0 n (%) | AE: Asthenia (Regimen 2C N = 8, All Grades): 2 (25.0) n (%) | AE: Atrial Fibrillation (Regimen 2C N = 8, All Grades): 0 n (%) | AE: Atypical Pneumonia (Regimen 2C N = 8, All Grades): 0 n (%) | AE: Balanitis Candida (Regimen 2C N = 8, All Grades): 0 n (%) | AE: Blood Alkaline Phosphatase Increased (Regimen 2C N = 8, All Grades): 0 n (%) | AE: Blood Bilirubin Increased (Regimen 2C N = 8, All Grades): 0 n (%) | AE: Blood Creatinine Increased (Regimen 2C N = 8, All Grades): 1 (12.5) n (%) | AE: Blood Phosphorus Increased (Regimen 2C N = 8, All Grades): 0 n (%) | AE: Blood Uric Acid Increased (Regimen 2C N = 8, All Grades): 0 n (%) | AE: Bone Marrow Failure (Regimen 2C N = 8, All Grades): 0 n (%) | AE: C-Reactive Protein Increased (Regimen 2C N = 8, All Grades): 0 n (%) | AE: Cardiac Failure (Regimen 2C N = 8, All Grades): 0 n (%) | AE: Cellulitis (Regimen 2C N = 8, All Grades): 0 n (%) | AE: Chronic Graft Versus Host Disease (Regimen 2C N = 8, All Grades): 0 n (%) | AE: Conjunctival Haemorrhage (Regimen 2C N = 8, All Grades): 0 n (%) | AE: Constipation (Regimen 2C N = 8, All Grades): 1 (12.5) n (%) | AE: Cough (Regimen 2C N = 8, All Grades): 0 n (%) | AE: Cystitis Viral (Regimen 2C N = 8, All Grades): 0 n (%) | AE: Cytomegalovirus Infection (Regimen 2C N = 8, All Grades): 0 n (%) | AE: Decreased Appetite (Regimen 2C N = 8, All Grades): 4 (50.0) n (%) | AE: Diarrhoea (Regimen 2C N = 8, All Grades): 2 (25.0) n (%) | AE: Dyspepsia (Regimen 2C N = 8, All Grades): 0 n (%) | AE: Dyspnoea (Regimen 2C N = 8, All Grades): 0 n (%) | AE: Epistaxis (Regimen 2C N = 8, All Grades): 1 (12.5) n (%) | AE: Fatigue (Regimen 2C N = 8, All Grades): 2 (25.0) n (%) | AE: Febrile Neutropenia (Regimen 2C N = 8, All Grades): 3 (37.5) n (%) | AE: Gamma-Glutamyltransferase Increased (Regimen 2C N = 8, All Grades): 0 n (%) | AE: General Physical Health Deterioration (Regimen 2C N = 8, All Grades): 0 n (%) | AE: Gingival Bleeding (Regimen 2C N = 8, All Grades): 0 n (%) | AE: Graft Versus Host Disease (Regimen 2C N = 8, All Grades): 0 n (%) | AE: Haemoglobin Decreased (Regimen 2C N = 8, All Grades): 0 n (%) | AE: Headache (Regimen 2C N = 8, All Grades): 0 n (%) | AE: Hyperbilirubinaemia (Regimen 2C N = 8, All Grades): 0 n (%) | AE: Hyperglycaemia (Regimen 2C N = 8, All Grades): 0 n (%) | AE: Hyperkalaemia (Regimen 2C N = 8, All Grades): 0 n (%) | AE: Hyperphosphataemia (Regimen 2C N = 8, All Grades): 1 (12.5) n (%) | AE: Hypoalbuminaemia (Regimen 2C N = 8, All Grades): 0 n (%) | AE: Hypocalcaemia (Regimen 2C N = 8, All Grades): 0 n (%) | AE: Hypokalaemia (Regimen 2C N = 8, All Grades): 0 n (%) | AE: Hypomagnesaemia (Regimen 2C N = 8, All Grades): 0 n (%) | AE: Hyponatraemia (Regimen 2C N = 8, All Grades): 0 n (%) | AE: Hypophosphataemia (Regimen 2C N = 8, All Grades): 0 n (%) | AE: Hypotension (Regimen 2C N = 8, All Grades): 0 n (%) | AE: Infection (Regimen 2C N = 8, All Grades): 0 n (%) | AE: Infective Glossitis (Regimen 2C N = 8, All Grades): 1 (12.5) n (%) | AE: Iron Overload (Regimen 2C N = 8, All Grades): 0 n (%) | AE: Leukopenia (Regimen 2C N = 8, All Grades): 0 n (%) | AE: Lip Oedema (Regimen 2C N = 8, All Grades): 0 n (%) | AE: Lipase Increased (Regimen 2C N = 8, All Grades): 0 n (%) | AE: Macular Oedema (Regimen 2C N = 8, All Grades): 0 n (%) | AE: Malaise (Regimen 2C N = 8, All Grades): 0 n (%) | AE: Mouth Haemorrhage (Regimen 2C N = 8, All Grades): 0 n (%)
